Data reported in patent publication US20140329863A1 (priority 2011, published 2014).
Read-outs that look alike come from different tables or passages of the source.

Assays:
[1] = system: PrP^Sc in dividing ScN2a-cl3 cells; type: cell-based, mouse; set-up: Dividing ELISA pEC50 (μM) 1st Expt. / Dividing ELISA pEC50 (μM) 2nd Expt. / Dividing ELISA pEC50 (μM) 3rd Expt. / Dividing ELISA pEC50 (μM) Mean: unit not given here
[2] = system: PrP^Sc in nondividing ScN2a-cl3 cells; type: cell-based, mouse; settings: read-out: Non-Dividing ELISA EC50 (μM) Mean (n = 3); ScN2a-c13 non-dividing cells; mean n = 3
N2a-cl3 cells = experiment: cells; settings: Mus musculus, N2a-cl3, read-out: Dividing Calcein EC50 (μM) Mean (n = 3)
[3] = Table 29, 2-AMT analogs tested for potency, usually n = 3 or more
[4] = ScN2a-cl3 dividing cells, 1st determination
[5] = ScN2a-cl3 dividing cells, 2nd determination
[6] = ScN2a-cl3 dividing cells, 3rd determination
[7] = ScN2a-cl3 dividing cells, mean of three determinations
[8] = read-out: Dividing ELISA EC50 (μM) 1st Expt., ScN2a-cl3 dividing cells, 1st determination
[9] = read-out: Dividing ELISA EC50 (μM) 2nd Expt., ScN2a-cl3 dividing cells, 2nd determination
[10] = read-out: Dividing ELISA EC50 (μM) 3rd Expt., ScN2a-cl3 dividing cells, 3rd determination
[11] = read-out: Dividing ELISA EC50 (μM) Mean, ScN2a-cl3 dividing cells, mean of three determinations

SMILES | EC50 ([1]; AMT analogs tested for potency) | EC50 [1, 3] | melting point | Dividing ELISA pEC50 (μM) 1st Expt. [1, 4] | Dividing ELISA pEC50 (μM) 2nd Expt. [1, 5] | Dividing ELISA pEC50 (μM) 3rd Expt. [1, 6] | Dividing ELISA pEC50 (μM) Mean [1, 7] | EC50 [1, 8] | EC50 [1, 9] | EC50 [1, 10] | EC50 [1, 11] | EC50 [2] | EC50 (N2a-cl3 cells)
COc1ccc(-c2csc(Nc3ccc(C)cn3)n2)c(OC)c1 [IND74, [4-(2,4-Dimethoxy-phenyl)-thiazol-2-yl]-(5-methyl-pyridin-2-yl)-amine] | 3.13 µM | 3.13 µM | 157 to 158 °C |  |  |  |  |  |  |  |  |  | 
Cc1ccnc(Nc2nc(-c3ccc(OC(F)(F)F)cc3)cs2)c1 [IND78, (4-Methyl-pyridin-2-yl)-[4-(4-trifluoromethoxy-phenyl)-thiazol-2-yl]-amine] | > 32 µM | > 32 µM | 275 to 282 °C |  |  |  |  |  |  |  |  |  | 
COc1ccnc(Nc2nc(-c3ccncc3)cs2)c1 [IND111, (4-Methoxy-pyridin-2-yl)-(4-pyridin-4-yl-thiazol-2-yl)-amine] | 0.605 µM |  | 190 to 192 °C |  |  |  |  |  |  |  |  |  | 
COc1ccc(Nc2nc(-c3ccncc3)cs2)nc1 [IND119, (5-Methoxy-pyridin-2-yl)-(4-pyridin-4-yl-thiazol-2-yl)-amine] | 1.32 µM |  | 213 to 214 °C |  |  |  |  |  |  |  |  |  | 
COc1ccc(Nc2nc(-c3cc4ccccc4o3)cs2)nc1 [IND121, (4-Benzofuran-2-yl-thiazol-2-yl)-(5-methoxy-pyridin-2-yl)-amine] | 1.74 µM |  | 185 to 186 °C |  |  |  |  |  |  |  |  |  | 
COc1ccc(Nc2nc(-c3ccc(-c4ccccc4)cc3)cs2)nc1 [IND122, (4-Biphenyl-4-yl-thiazol-2-yl)-(5-methoxy-pyridin-2-yl)-amine] | 0.432 µM |  | 212 to 213 °C |  |  |  |  |  |  |  |  |  | 
COc1ccc(-c2csc(Nc3cccc(C)n3)n2)cc1OC [compound 4, [4-(3,4-dimethoxyphenyl)-thiazol-2-yl]-(6-methylpyridin-2-yl)-amine] |  |  | 264 to 266 °C | 5.25 | 5.92 | 5.65 | 5.61 | 5.62 µM | 1.19 µM | 2.22 µM | 3.01 µM | > 32 µM | > 32 µM
COc1ccc(-c2csc(Nc3ccccn3)n2)cc1OC [compound 6, [4-(3,4-dimethoxyphenyl)-thiazol-2-yl]pyridin-2-yl-amine] |  |  | 211 to 214 °C |  |  |  |  | 11.8 µM | 6.47 µM | 6.38 µM | 8.22 µM | > 32 µM | > 32 µM
COc1ccc(-c2csc(Nc3ccncc3)n2)cc1OC [compound 8, [4-(3,4-dimethoxyphenyl)-thiazol-2-yl]pyridin-4-yl-amine] |  |  | 205 to 207 °C | >4.5 | 4.60 | 4.57 |  | > 32 µM | 25.2 µM | 26.9 µM | > 28 µM | > 32 µM | > 32 µM
COc1ccc(-c2csc(Nc3ccccc3)n2)cc1OC [compound 9, [4-(3,4-dimethoxyphenyl)-thiazol-2-yl]-phenyl-amine] |  |  | 170 to 174 °C | 5.13 | 5.14 | 5.35 | 5.21 | 7.4 µM | 7.29 µM | 4.45 µM | 6.38 µM | > 32 µM | > 32 µM
COc1ccc(-c2csc(Nc3ncccn3)n2)cc1OC [compound 10, [4-(3,4-dimethoxyphenyl)-thiazol-2-yl]pyrimidin-2-yl-amine] |  |  | 225 to 228 °C | 5.49 | 5.17 | 5.73 | 5.46 | 3.25 µM | 6.71 µM | 1.85 µM | 3.94 µM | > 32 µM | > 32 µM
COc1ccc(-c2csc(Nc3cnccn3)n2)cc1OC [compound 11, [4-(3,4-dimethoxyphenyl)-thiazol-2-yl]pyrazin-2-yl-amine] |  |  | 205 to 207 °C | 4.59 | 5.03 | 4.93 | 4.85 | 26 µM | 9.23 µM | 11.7 µM | 15.6 µM | > 32 µM | > 32 µM
COc1ccc(-c2csc(Nc3ncccc3C)n2)cc1OC [compound 15, [4-(3,4-dimethoxyphenyl)-thiazol-2-yl]-(3-methylpyridin-2-yl)-amine] |  |  | 264 to 266 °C | 4.89 | 5.68 | 5.17 | 5.25 | 13 µM | 2.07 µM | 6.81 µM | 7.29 µM | > 32 µM | > 32 µM
COc1ccc(-c2csc(Nc3cc(C)ccn3)n2)cc1OC [compound 16, [4-(3,4-dimethoxyphenyl)-thiazol-2-yl]-(4-methylpyridin-2-yl)-amine] |  |  | 211 to 213 °C | 5.95 | 6.13 | 5.95 | 6.01 | 1.13 µM | 0.736 µM | 1.13 µM | 1 µM | > 32 µM | > 32 µM
COc1ccc(-c2csc(Nc3ccc4ccccc4c3)n2)cc1OC [compound 19, [4-(3,4-dimethoxyphenyl)-thiazol-2-yl]-naphthalen-2-yl-amine] |  |  | 221 to 224 °C | 6.36 | 6.50 | 6.38 | 6.41 | 0.436 µM | 0.317 µM | 0.413 µM | 0.389 µM | > 32 µM | > 32 µM
COc1ccc(-c2csc(Nc3cccc4ccccc34)n2)cc1OC [compound 20, [4-(3,4-dimethoxyphenyl)-thiazol-2-yl]-naphthalen-1-yl-amine] |  |  | 244 to 246 °C | >4.5 | >4.5 | >4.5 |  | > 32 µM | > 32 µM | > 32 µM | > 32 µM | > 32 µM | > 32 µM
COc1ccc(-c2csc(Nc3ccc(C)cn3)n2)cc1 [compound 21, [4-(4-Methoxyphenyl)-thiazol-2-yl]-(5-methylpyridin-2-yl)-amine] |  |  | 246 to 248 °C | 5.30 | 5.72 | 5.66 | 5.56 | 5.02 µM | 1.89 µM | 2.19 µM | 3.03 µM | > 32 µM | > 32 µM
COc1ccccc1-c1csc(Nc2ccc(C)cn2)n1 [compound 22, [4-(2-Methoxyphenyl)-thiazol-2-yl]-(5-methylpyridin-2-yl)-amine] |  |  | 228 to 230 °C | >4.5 | 4.58 | 4.52 |  | > 32 µM | 26.1 µM | 30.2 µM | > 29 µM | > 32 µM | > 32 µM
Cc1ccc(Nc2nc(-c3ccccn3)cs2)nc1 [compound 24, (5-Methylpyridin-2-yl)-(4-pyridin-2-yl-thiazol-2-yl)-amine] |  |  | 184 to 190 °C |  |  |  |  | 1.62 µM | 0.507 µM | 0.449 µM | 0.86 µM | > 32 µM | 0.389 µM
Cc1ccc(Nc2nc(-c3ccc(-c4ccccn4)s3)cs2)nc1 [compound 26, (5-Methylpyridin-2-yl)-[4-(5-pyridin-2-yl-thiophen-2-yl)-thiazol-2-yl]-amine] |  |  | 197 to 199 °C | 5.80 | 6.06 | 5.91 | 5.92 | 1.58 µM | 0.879 µM | 1.22 µM | 1.23 µM | > 32 µM | > 32 µM
c1ccc(-c2csc(Nc3cc4ccccc4cn3)n2)cc1 [compound 33, Isoquinolin-3-yl-(4-phenylthiazol-2-yl)-amine] |  |  | 265 to 267 °C | 5.69 | 5.55 | 5.37 | 5.53 | 2.06 µM | 2.85 µM | 4.32 µM | 3.08 µM | > 32 µM | > 32 µM
